Data: patent US20260048130A1, “ALPHA-V BETA-6 (avb6) INTEGRIN LIGANDS FOR EXTRAHEPATIC DELIVERY” (Alnylam Pharmaceuticals, Inc., priority 2022, published 2026)
In the oligonucleotide strings, read from the 5' end, every base follows the letter of its sugar. An asterisk marks phosphorothioate; unmarked linkages are phosphodiester. Other units and linkages are bracketed, terminal groups are in braces. A string of capitals states the bases alone. {Q410} = αvβ6 integrin ligand conjugate, (S,R) stereochemistry, phosphorothioate-linked; {Q411} = αvβ6 integrin ligand conjugate, (R,R) stereochemistry variant; {L352} = αvβ6 integrin ligand conjugate, (S,R) stereochemistry; {L353} = αvβ6 integrin ligand conjugate, (S,S) stereochemistry; {L373Z511} = αvβ6 integrin ligand conjugate variant; {L373Z512} = αvβ6 integrin ligand conjugate variant; {L373Z513} = αvβ6 integrin ligand conjugate variant; {L354} = αvβ6 integrin ligand conjugate; {VP} = (E)-vinylphosphonate; m = 2'-O-methyl; f = 2'-fluoro

Assays:
Sod1 mRNA = Sod1 mRNA knockdown in mouse lung after intranasal administration (RT-qPCR); format: in vivo; details: for % Sod1 Remaining: Day 10, relative to PBS
Method: Heart and quadricep powder were homogenized and lysed in 750 μL of QIAzol Lysis Reagent for 5 minutes×2 at 25 Hz using a TissueLyser. Chloroform ([…]) was thoroughly mixed with each sample and lysates were centrifugated at full speed for 15 minutes at 4° C. Total RNA was isolated from the supernatant using the RNeasy® 96 Universal Tissue Kit. Resulting RNA (1500 ng) was used for cDNA synthesis using the Applied Biosystems™ High-Capacity cDNA Reverse Transcription Kit with RNase Inhibitor. For qPCR reactions, 2 uL cDNA was used per 10 μL reaction. RT-qPCR was performed using the LightCycler® 480 Probes Master in the LightCycler® 480 Instrument system using gene specific TaqMan assays for each target mouse-specific Sod1 (ThermoFisher Scientific, Mm01344233_g1) and Gapdh (ThermoFisher Scientific, Mm99999915_g1) were used for RT-qPCR analysis. Each sample was analyzed in duplicate by RT-qPCR. Data were analyzed using the ΔΔCt method normalizing to control animals treated with 1×PBS alone.
Table 5 provides the study design used to evaluate the in vivo pharmacodynamic and/or pharmacologic activity of αvβ6 integrin targeting siRNA conjugates in mouse lung following intranasal administration.
Female mice were intranasally administered either a single 1 mg/kg or 10 mg/kg dose of the dsRNA agents conjugated to αvβ6 and at Day 10 post-dose animals were sacrificed and lung, heart, liver, and kidney tissues were collected. The level of Sod1 mRNA in the samples was determined by R^T-qPCR as described above.

recombinant human αvβ6 = biological target: T1, recombinant human αvβ6 (Homo sapiens, UniProt P06756+P18564, DEL708-788); test: ELISA displacement assay (αvβ6 binding to LAP/TGF1b); details: recombinant human αvβ6 vs coated human LAP/TGF1b
T1 construct: purchased R&D Systems 3817AV050
Method: ELISA plates were coated with 0.6 ug/mL recombinant human LAP/TGF1b (R&D Systems 246LP025) in carbonate buffer (pH 9.6) overnight at 4 C. Plates were washed with PBST and blocked for 1 hour at room temperature with assay buffer (20 mM Tris-HCl, 150 mM NaCl, 2 mM CaCl2, 2 mM MgCl2, 2 mM MnCl2, 0.5% BSA, pH 7.4). Serial dilutions of competitor compound in assay buffer were added to plate, as well as 1.0 ug/mL of purified recombinant human αvβ6 (R&D Systems 3817AV050), and samples were incubated for 1 hour at room temperature. Plates were washed with PBS-T, then incubated with 2.5 ug/mL of anti-integrin av primary antibody (Sigma MAB1978) for 1 hour at room temperature. Plates were washed with PBS-T, then incubated with 2.0 ug/mL of HRP-conjugated secondary antibody for 1 hour at room temperature. Samples were incubated with TMB substrate (Thermo 34024) for 15 minutes, reaction was quenched with 3 M sulfuric acid, and absorbance was measured at 450 nm. Percent binding inhibition was calculated by normalizing to a maximum value obtained from no-competitor samples and a minimum value obtained from no-competitor-no-integrin samples. EC50 values are reported in the following ranges: “A” EC50>100 nM; “B” EC50 10-100 nM; “C” EC50<10 nM.

T1 sequence (P06756 31-992 limits assumed, stated change not applied): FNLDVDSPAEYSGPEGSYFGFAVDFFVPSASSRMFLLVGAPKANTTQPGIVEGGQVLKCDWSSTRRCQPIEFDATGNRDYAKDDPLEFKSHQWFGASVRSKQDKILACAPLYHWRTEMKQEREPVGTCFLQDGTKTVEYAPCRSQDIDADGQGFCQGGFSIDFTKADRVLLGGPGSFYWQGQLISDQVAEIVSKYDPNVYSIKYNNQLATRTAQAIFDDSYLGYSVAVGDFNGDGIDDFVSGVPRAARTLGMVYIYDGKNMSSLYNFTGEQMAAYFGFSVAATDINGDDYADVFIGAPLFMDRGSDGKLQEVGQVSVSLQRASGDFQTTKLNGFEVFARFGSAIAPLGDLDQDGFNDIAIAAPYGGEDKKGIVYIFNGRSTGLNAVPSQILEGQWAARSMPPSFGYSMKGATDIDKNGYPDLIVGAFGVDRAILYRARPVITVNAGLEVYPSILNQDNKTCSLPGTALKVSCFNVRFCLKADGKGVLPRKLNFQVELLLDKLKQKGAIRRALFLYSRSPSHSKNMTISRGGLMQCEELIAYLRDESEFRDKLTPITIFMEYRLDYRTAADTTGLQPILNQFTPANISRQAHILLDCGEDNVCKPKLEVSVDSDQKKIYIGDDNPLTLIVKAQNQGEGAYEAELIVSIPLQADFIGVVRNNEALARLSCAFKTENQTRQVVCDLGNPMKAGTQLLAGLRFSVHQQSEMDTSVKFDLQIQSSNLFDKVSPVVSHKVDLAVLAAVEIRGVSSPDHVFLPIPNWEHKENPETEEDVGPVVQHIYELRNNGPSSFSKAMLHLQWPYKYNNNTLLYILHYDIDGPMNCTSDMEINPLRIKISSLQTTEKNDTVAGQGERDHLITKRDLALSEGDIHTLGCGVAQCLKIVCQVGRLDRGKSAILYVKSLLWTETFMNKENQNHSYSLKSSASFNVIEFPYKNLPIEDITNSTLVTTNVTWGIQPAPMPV
T1 sequence (P18564 22-707 limits assumed, stated change not applied): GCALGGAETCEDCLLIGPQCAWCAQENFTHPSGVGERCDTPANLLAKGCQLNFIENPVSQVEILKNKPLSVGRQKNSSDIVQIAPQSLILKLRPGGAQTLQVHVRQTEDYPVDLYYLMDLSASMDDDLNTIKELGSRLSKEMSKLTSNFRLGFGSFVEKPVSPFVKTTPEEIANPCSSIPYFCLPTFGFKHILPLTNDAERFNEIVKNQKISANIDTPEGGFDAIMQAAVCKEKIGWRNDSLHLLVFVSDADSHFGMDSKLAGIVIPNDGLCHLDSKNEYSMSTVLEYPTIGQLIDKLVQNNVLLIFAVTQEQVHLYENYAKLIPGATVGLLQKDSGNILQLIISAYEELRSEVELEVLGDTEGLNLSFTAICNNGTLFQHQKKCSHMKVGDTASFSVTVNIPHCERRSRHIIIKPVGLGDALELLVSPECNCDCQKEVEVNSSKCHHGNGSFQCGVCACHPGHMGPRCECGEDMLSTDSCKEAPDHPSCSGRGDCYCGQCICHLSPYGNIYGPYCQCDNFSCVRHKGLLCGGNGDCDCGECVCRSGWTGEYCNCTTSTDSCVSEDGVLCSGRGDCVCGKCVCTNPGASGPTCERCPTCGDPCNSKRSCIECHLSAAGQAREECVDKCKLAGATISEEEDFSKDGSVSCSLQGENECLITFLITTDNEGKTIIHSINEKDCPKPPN

Substance | % Sod1 Remaining (Sod1 mRNA; single intranasal 1 mg/kg) [%] | % Sod1 Remaining (Sod1 mRNA; single intranasal 10 mg/kg) [%] | Sod1 knockdown in mouse lung, comparison between conjugate designs (Sod1 mRNA; intranasal, matched pairs by avidity or stereochemistry) | EC50 (recombinant human αvβ6) [nM]
AD-1481899.1: "3′,5′ is better than the triple (AD-1481899 vs AD-1481901 as matched pair of (S,R) stereochemistry)" (sense mC*mA*mUmUmUmUfAmAfUfCfCmUmCmAmCmUmCmUmAmA*mA*{L354}; antisense {VP}-mU*fU*mUmAmGfAmGfUfGmAmGmGmAfUmUfAmAmAmAmUmG*mA*mG; siRNA) | 60.0 | 52.4 | – | –
AD-1481901.1: "3′,5′ is better than the triple (AD-1481899 vs AD-1481901 as matched pair of (S,R) stereochemistry)" (sense {Q410}*mC*mAmUmUmUmUfAmAfUfCfCmUmCmAmCmUmCmUmAmA*mA*{L352}; antisense {VP}-mU*fU*mUmAmGfAmGfUfGmAmGmGmAfUmUfAmAmAmAmUmG*mA*mG; siRNA) | 47.7 | 35.9 | – | –
AD-1481901: "inhibition of Sod1 mRNA expression in mouse quadriceps, heart, liver, and lung 21 days after a single 2 mg/kg intravenous dose" (sense {Q410}*mC*mAmUmUmUmUfAmAfUfCfCmUmCmAmCmUmCmUmAmA*mA*{L352}; antisense {VP}-mU*fU*mUmAmGfAmGfUfGmAmGmGmAfUmUfAmAmAmAmUmG*mA*mG) | – | – | better than the triple | –
AD-1481902.1: "inhibition of Sod1 mRNA expression in mouse quadriceps, heart, liver, and lung 21 days after a single 2 mg/kg intravenous dose" (sense {Q411}*mC*mAmUmUmUmUfAmAfUfCfCmUmCmAmCmUmCmUmAmA*mA*{L353}; antisense {VP}-mU*fU*mUmAmGfAmGfUfGmAmGmGmAfUmUfAmAmAmAmUmG*mA*mG) | 77.2 | 51.2 | – | –
AD-1481904.1: dsRNA agent targeting Sod1 conjugated to αvβ6 ligand: "3′-monos (AD-1481903 (S,R) vs AD-1481904 (S,S))" (sense mC*mA*mUmUmUmUfAmAfUfCfCmUmCmAmCmUmCmUmAmA*mA*{L353}; antisense {VP}-mU*fU*mUmAmGfAmGfUfGmAmGmGmAfUmUfAmAmAmAmUmG*mA*mG) | 59.2 | 49.8 | – | –
AD-2032892: "inhibition of Sod1 mRNA expression in mouse gastrocnemius and quadriceps 21 days after a single 2 mg/kg intravenous dose of AD-2032892" (sense mU*mU*mGmGmGmCfAmAfAfGfGmUmGmGmAmAmAmUmGmA*mA*{L354}; antisense {VP}-mU*fU*mCmAmUfUmUfCfCmAmCmCmUfUmUfGmCmCmCmAmA*mG*mU) | – | – | – | < 10
AD-2639645 (sense mU*mU*mGmGmGmCfAmAfAfGfGmUmGmGmAmAmAmUmGmA*mA*{L373Z511}; antisense {VP}-mU*fU*mCmAmUfUmUfCfCmAmCmCmUfUmUfGmCmCmCmAmA*mG*mU; siRNA) | – | – | – | > 100
AD-2639646 (sense mU*mU*mGmGmGmCfAmAfAfGfGmUmGmGmAmAmAmUmGmA*mA*{L373Z512}; antisense {VP}-mU*fU*mCmAmUfUmUfCfCmAmCmCmUfUmUfGmCmCmCmAmA*mG*mU; siRNA) | – | – | – | 10 to 100
AD-2639647 (sense mU*mU*mGmGmGmCfAmAfAfGfGmUmGmGmAmAmAmUmGmA*mA*{L373Z513}; antisense {VP}-mU*fU*mCmAmUfUmUfCfCmAmCmCmUfUmUfGmCmCmCmAmA*mG*mU; siRNA) | – | – | – | < 10
